According to US9409952B2, “Peptide-compound cyclization method” (Chugai Seiyaku Kabushiki Kaisha, priority 2011, dated 2016):
Read-outs that look alike come from different tables or passages of the source. Starred links: 1 amine or outer side, 2 acyl side, 3 side chain; linkers in the order of their positions; H or OH if unused. Positions of bridges follow the written chain, without caps; N, C: chain ends. Non-standard residues stand in square brackets, D forms with d. Residues, ends and D or L forms follow the SMILES beside them. *: point of attachment. NMeF = CN[C@@H](Cc1ccccc1)C(=O)O; NMeI = CC[C@H](C)[C@H](NC)C(=O)O; NMeβAla = CN(CCC(=O)[*:2])[*:1]; NMeL = CN[C@@H](CC(C)C)C(=O)O; NMeV = CN[C@H](C(=O)O)C(C)C; NMeA = CN[C@@H](C)C(=O)O; Piperidide = C1CCN(*)CC1; Sar = CNCC(=O)O; tBu = CC(C)(C)*

How the values were obtained:
[1] = PAMPA (parallel artificial membrane permeability assay); format: in vitro ADME; conditions: PAMPA, pH 6.5
Description: 4 μL of a phospholipid-organic solvent solution composed of 10% (w/v) of egg lecithin, 0.5% (w/v) of cholesterol and dodecane (all purchased from Fluka) was added to a Millipore 96-well membrane filter (hydrophobic PVDF (polyvinylidene difluoride), pore size 0.45 microm) (purchased from Millipore Japan) to make an artificial phospholipid membrane.
A DMSO solution containing the compound at a concentration of 10 mM was added in a percentage of 0.5% (v/v) to a 50 mM MOPSO buffer, pH 6.5, containing 5.0% (w/v) of glycocholic acid, and 330 μL of the mixture was added to a 96-well plate made of Teflon (donor plate). The above artificial phospholipid membrane plate was attached onto the donor plate, and 280 μL of a solution obtained by adding DMSO in a percentage of 0.5% (v/v) to a 50 mM MOPSO buffer, pH 6.5, containing 5.0% (w/w) of glycocholic acid was added onto the artificial phospholipid membrane (acceptor plate). These plates were allowed to stand at 37° C. for 18 hours, after which the concentrations of the compound in the solutions in the donor plate and the acceptor plate were measured by LC/MS or LC/UV, and the membrane permeation rate of the compound (Pe) was calculated by the following formulas (1) and (2), where t is the testing time, A is the membrane filter area, VD is the amount of the donor solution, VA is the amount of the acceptor solution, CD,t is the concentration of the compound in the donor solution at the time t, and CA,t is the concentration of the compound in the acceptor solution at the time t.

[2] = Metabolic stability in human hepatic microsome; format: in vitro ADME; conditions: microsomes

| SMILES | Papp at 18 hours, 50 µM [1] [nm/s] | also measured |
| --- | --- | --- |
| CC[C@H](C)[C@H]1C(=O)N[C@H](C(=O)N2CCCCC2)CC(=O)N[C@@H](C)C(=O)N(C)[C@@H](C)C(=O)N(C)[C@@H](Cc2ccccc2)C(=O)N(C)[C@@H](CC(C)C)C(=O)N[C@@H]([C@@H](C)O)C(=O)N(C)CC(=O)N(C)[C@@H](CC(C)C)C(=O)N[C@@H](COC(C)(C)C)C(=O)N1C [DP-36] (A[NMeA][NMeF][NMeL]T[Sar][NMeL]S(tBu)[NMeI]D-Piperidide; lactam N-10) | 270 | – |
| CC[C@H](C)[C@H]1C(=O)N[C@H](C(=O)N2CCCCC2)CC(=O)N(C)CC(=O)N(C)[C@@H](CC(C)C)C(=O)N[C@@H](C)C(=O)N(C)[C@@H](CC(C)C)C(=O)N(C)[C@@H](Cc2ccccc2)C(=O)N(C)[C@@H](CC(C)C)C(=O)N(C)[C@@H](Cc2ccccc2)C(=O)N[C@@H]([C@@H](C)O)C(=O)N(C)[C@@H](C)C(=O)N1C [DP-70] ([Sar][NMeL]A[NMeL][NMeF][NMeL][NMeF]T[NMeA][NMeI]D-Piperidide; lactam N-11) | 400 | – |
| CC[C@H](C)[C@H]1C(=O)N[C@H](C(=O)N2CCCCC2)CC(=O)N[C@H](C)C(=O)N[C@@H]([C@@H](C)O)C(=O)N(C)[C@@H](C)C(=O)N(C)[C@@H](C(C)C)C(=O)N[C@@H](Cc2ccccc2)C(=O)N(C)CC(=O)N(C)[C@@H](CC(C)C)C(=O)N[C@@H](C)C(=O)N1C [DP-71] ([dA]T[NMeA][NMeV]F[Sar][NMeL]A[NMeI]D-Piperidide; lactam N-10) | 54 | – |
| CC(C)C[C@@H]1NC(=O)[C@H](Cc2ccccc2)N(C)C(=O)[C@@H](C(C)C)NC(=O)C[C@@H](C(=O)N2CCCCC2)NC(=O)[C@H](C(C)C)N(C)C(=O)[C@H](Cc2ccccc2)N(C)C(=O)[C@H](COC(C)(C)C)NC(=O)[C@H](CC(C)C)N(C)C(=O)CN(C)C(=O)[C@H]([C@@H](C)O)NC(=O)[C@H](CC(C)C)N(C)C1=O [DP-149] ([dV][NMeF]L[NMeL]T[Sar][NMeL]S(tBu)[NMeF][NMeV]D-Piperidide; lactam N-11) | 170 | – |
| CC[C@H](C)[C@@H]1NC(=O)[C@H](CC(C)C)N(C)C(=O)[C@H](Cc2ccccc2)N(C)C(=O)[C@H]([C@@H](C)O)NC(=O)[C@H](CC(C)C)N(C)C(=O)[C@H](CC(C)C)N(C)C(=O)[C@H](C)N(C)C(=O)C[C@@H](C(=O)N2CCCCC2)NC(=O)[C@H](CC(C)C)NC(=O)[C@H](Cc2ccccc2)N(C)C(=O)[C@H](C)N(C)C1=O [DP-154] ([NMeA][NMeL][NMeL]T[NMeF][NMeL]I[NMeA][NMeF]LD-Piperidide; lactam N-11) | 93 | – |
| CC[C@H](C)[C@H](NC(=O)[C@H](Cc1ccccc1)N(C)C(=O)[C@H](Cc1ccccc1)N(C)C(=O)[C@@H]1CC(=O)N(C)CCC(=O)N(C)[C@@H](CC(C)C)C(=O)N(C)[C@@H](Cc2ccccc2)C(=O)N[C@@H](CC(C)C)C(=O)N(C)[C@@H](CC(C)C)C(=O)N(C)[C@@H](CC(C)C)C(=O)N[C@@H]([C@@H](C)O)C(=O)N(C)[C@@H](C)C(=O)N1)C(=O)N1CCCCC1 [DP-960] ([NMeβAla][NMeL][NMeF]L[NMeL][NMeL]T[NMeA]D[NMeF][NMeF]I-Piperidide; lactam N-9) | – | microsomal CLint at 1 uM ([2]; pH 7.4, human hepatic microsome, NADPH(+), read-out: CL NADPH(+)): 36 µL/min/mg |
| CC[C@H](C)[C@H](NC(=O)[C@H](Cc1ccccc1)N(C)C(=O)[C@@H]1CC(=O)N(C)[C@@H](C)C(=O)N[C@@H](Cc2ccccc2)C(=O)N(C)[C@@H](CC(C)C)C(=O)N(C)[C@@H](CC(C)C)C(=O)N[C@@H](Cc2ccccc2)C(=O)N(C)[C@@H](CC(C)C)C(=O)N[C@@H]([C@@H](C)CC)C(=O)N2CCC[C@H]2C(=O)N[C@@H]([C@@H](C)O)C(=O)N[C@@H](CC(C)C)C(=O)N1)C(=O)N1CCCCC1 [DP-962] ([NMeA]F[NMeL][NMeL]F[NMeL]IPTLD[NMeF]I-Piperidide; lactam N-11) | – | microsomal CLint at 1 uM ([2]; human, pH 7.4, CL NADPH(+)): 22 µL/min/mg |
